Experimental data from patent publication US7101878B1 (Agouron Pharmaceuticals, Inc., priority 1998, dated 2006).

The molecules below were run against T1, mouse GnRH receptor (Mus musculus, UniProt Q01776) (assay: Radioligand binding, 125I-GnRH-A, 293 cells expressing mouse GnRH receptors). Conditions: 1 h, substrate remaining; 10 uM compound; closer to zero = closer to 100% inhibition; read-out: S%R 10 uM mGnRHR.
T1 construct: expressed in transfected cells; host or cells: 293 cells
T1 sequence (Q01776 1-327): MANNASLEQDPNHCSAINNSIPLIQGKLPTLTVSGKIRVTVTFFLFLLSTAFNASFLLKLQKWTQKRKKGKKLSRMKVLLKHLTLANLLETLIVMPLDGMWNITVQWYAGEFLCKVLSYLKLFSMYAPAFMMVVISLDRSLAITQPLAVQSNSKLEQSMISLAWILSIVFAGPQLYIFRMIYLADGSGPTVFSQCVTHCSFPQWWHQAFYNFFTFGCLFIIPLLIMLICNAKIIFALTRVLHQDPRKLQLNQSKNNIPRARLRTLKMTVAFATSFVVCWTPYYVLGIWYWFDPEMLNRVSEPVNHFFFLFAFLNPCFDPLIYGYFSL
How it was run: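 Bound label captured on 0.1% polyethyleneimine-treated GF/C filters, washed three times with PBS, counted. IC50 derived; identical set-up for every species.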

Compound	remaining activity at 10 µM [%]
Cc1cc2c(cc1Cc1ccc(C(=O)NCCC3CCCN3C)o1)C(C)(C)CCC2(C)C (centres unmarked) [Compound 456]	-12
Cc1cc2c(cc1Cc1ccc(C(=O)NCCc3cccnc3)o1)C(C)(C)CCC2(C)C [Compound 457]	-3
Cc1cc2c(cc1Cc1ccc(C(=O)NCCNCCNc3ccccc3)o1)C(C)(C)CCC2(C)C [Compound 458]	29
Cc1cc2c(cc1Cc1ccc(C(=O)NC(CCCNC(N)N)C(=O)O)o1)C(C)(C)CCC2(C)C (centres unmarked) [Compound 459]	53
Cc1cc2c(cc1Cc1ccc(C(=O)NCCCN3CCOCC3)o1)C(C)(C)CCC2(C)C [Compound 460]	-4
Cc1cc2c(cc1Cc1ccc(C(=O)NCCc3ccc(S(N)(=O)=O)cc3)o1)C(C)(C)CCC2(C)C [Compound 461]	53
Cc1cc2c(cc1Cc1ccc(C(=O)NCCCN(C)c3ccccc3)o1)C(C)(C)CCC2(C)C [Compound 462]	0
Cc1cc2c(cc1Cc1ccc(C(=O)N3CCC(C(N)=O)CC3)o1)C(C)(C)CCC2(C)C [Compound 463]	-5
Cc1cc2c(cc1Cc1ccc(C(=O)NCC(=O)Nc3ccc([N+](=O)[O-])cc3)o1)C(C)(C)CCC2(C)C [Compound 464]	7
Cc1cc2c(cc1Cc1ccc(C(=O)NCCNCCN3CCOCC3)o1)C(C)(C)CCC2(C)C [Compound 465]	32
Cc1cc2c(cc1Cc1ccc(C(=O)NC3CCCCC3Nc3nccc(NCC4CCCO4)n3)o1)C(C)(C)CCC2(C)C (centres unmarked) [Compound 466]	30
Cc1cc2c(cc1Cc1ccc(C(=O)NCCc3ccc4c(c3)OCO4)o1)C(C)(C)CCC2(C)C [Compound 467]	-1
Cc1cc2c(cc1Cc1ccc(C(=O)NCCCn3ccnc3)o1)C(C)(C)CCC2(C)C [Compound 468]	-10
Cc1cc2c(cc1Cc1ccc(C(=O)NCCCc3ccccc3)o1)C(C)(C)CCC2(C)C [Compound 469]	-9
Cc1cc2c(cc1Cc1ccc(C(=O)NCCc3c[nH]c4ccccc34)o1)C(C)(C)CCC2(C)C [Compound 470]	6
Cc1cc2c(cc1Cc1ccc(C(=O)NCCc3cccs3)o1)C(C)(C)CCC2(C)C [Compound 471]	-4
Cc1cc2c(cc1Cc1ccc(C(=O)NCCCNCCCCNCCCN)o1)C(C)(C)CCC2(C)C [Compound 472]	42
Cc1cc2c(cc1Cc1ccc(C(=O)NC3CCCC(Nc4ccnc(NCC5CCCO5)n4)C3)o1)C(C)(C)CCC2(C)C (centres unmarked) [Compound 473]	-14
COc1ccc(C(=O)CNC(=O)c2ccc(Cc3cc4c(cc3C)C(C)(C)CCC4(C)C)o2)cc1 [Compound 474]	39
Cc1cc2c(cc1Cc1ccc(C(=O)NCCCN3CCN(C)CC3)o1)C(C)(C)CCC2(C)C [Compound 475]	-3
CC(=O)NCCNC(=O)c1ccc(Cc2cc3c(cc2C)C(C)(C)CCC3(C)C)o1 [Compound 476]	20
Cc1cc2c(cc1Cc1ccc(C(=O)Nc3ccc4[nH]c(-c5ccccn5)nc4c3)o1)C(C)(C)CCC2(C)C [Compound 477]	47

Compound	remaining activity at 10 µM [%]
Cc1cc2c(cc1Cc1ccc(C(=O)NCc3ccc(-c4csnn4)cc3)o1)C(C)(C)CCC2(C)C [Compound 478]	3
Cc1cc2c(cc1Cc1ccc(C(=O)NCC3CCC(C(=O)O)CC3)o1)C(C)(C)CCC2(C)C (centres unmarked) [Compound 479]	-3
Cc1cc2c(cc1Cc1ccc(C(=O)N3CCN(c4cccc(NCC5CCCO5)n4)CC3)o1)C(C)(C)CCC2(C)C (centres unmarked) [Compound 480]	-2
Cc1cc2c(cc1Cc1ccc(C(=O)NC3CCCCC3Nc3ccnc(NCC4CCCO4)n3)o1)C(C)(C)CCC2(C)C (centres unmarked) [Compound 481]	5
Cc1cc2c(cc1Cc1ccc(C(=O)NCCc3ccc([N+](=O)[O-])cc3)o1)C(C)(C)CCC2(C)C [Compound 482]	34
Cc1cc2c(cc1Cc1ccc(C(=O)NCC3CCNCC3)o1)C(C)(C)CCC2(C)C [Compound 483]	10
Cc1cc2c(cc1Cc1ccc(C(=O)NCc3ccc4c(c3)OCO4)o1)C(C)(C)CCC2(C)C [Compound 484]	-1
Cc1cc2c(cc1Cc1ccc(C(=O)NCCc3ccncc3)o1)C(C)(C)CCC2(C)C [Compound 485]	-5
Cc1cc2c(cc1Cc1ccc(C(=O)NC3CCC(c4nccc(NCC5CCCO5)n4)C3)o1)C(C)(C)CCC2(C)C (centres unmarked) [Compound 486]	33
Cc1cc2c(cc1Cc1ccc(C(=O)NCCCCNc3nccc(NCC4CCCO4)n3)o1)C(C)(C)CCC2(C)C (centres unmarked) [Compound 487]	3
Cc1cc2c(cc1Cc1ccc(C(=O)NCCN3CCCCC3)o1)C(C)(C)CCC2(C)C [Compound 488]	-3
COc1ccc(CCNC(=O)c2ccc(Cc3cc4c(cc3C)C(C)(C)CCC4(C)C)o2)cc1OC [Compound 489]	-1
COc1cc(CNC(=O)c2ccc(Cc3cc4c(cc3C)C(C)(C)CCC4(C)C)o2)cc(OC)c1 [Compound 490]	4
Cc1cc2c(cc1Cc1ccc(C(=O)NCC3CCN(c4nccc(NCC5CCCO5)n4)CC3)o1)C(C)(C)CCC2(C)C (centres unmarked) [Compound 491]	9
Cc1cc2c(cc1Cc1ccc(C(=O)NCC3CCCC(CNc4nccc(NCC5CCCO5)n4)C3)o1)C(C)(C)CCC2(C)C (centres unmarked) [Compound 492]	-7
COC(=O)CCCCCNC(=O)c1ccc(Cc2cc3c(cc2C)C(C)(C)CCC3(C)C)o1 [Compound 493]	-6
Cc1cc2c(cc1Cc1ccc(C(=O)NCCCN3CCCCC3C)o1)C(C)(C)CCC2(C)C (centres unmarked) [Compound 494]	-7
COc1cccc(CCNC(=O)c2ccc(Cc3cc4c(cc3C)C(C)(C)CCC4(C)C)o2)c1 [Compound 495]	4
Cc1cc2c(cc1Cc1ccc(C(=O)NCCCN(C)CCCN)o1)C(C)(C)CCC2(C)C [Compound 496]	-6
Cc1cc2c(cc1Cc1ccc(C(=O)NCc3ccc(C(=O)O)cc3)o1)C(C)(C)CCC2(C)C [Compound 497]	2
CNCCCNC(=O)c1ccc(Cc2cc3c(cc2C)C(C)(C)CCC3(C)C)o1 [Compound 498]	58
Cc1cc2c(cc1Cc1ccc(C(=O)NCC3CN(Cc4ccccc4)CCO3)o1)C(C)(C)CCC2(C)C (centres unmarked) [Compound 499]	1

Compound	remaining activity at 10 µM [%]
Cc1cc2c(cc1Cc1ccc(C(=O)NCc3nc4ccccc4[nH]3)o1)C(C)(C)CCC2(C)C [Compound 500]	-4
Cc1cc2c(cc1Cc1ccc(C(=O)NCc3ccccn3)o1)C(C)(C)CCC2(C)C [Compound 501]	-3
COc1cc(CNC(=O)c2ccc(Cc3cc4c(cc3C)C(C)(C)CCC4(C)C)o2)cc(OC)c1OC [Compound 502]	-2
Cc1cc2c(cc1Cc1ccc(C(=O)NCCc3ccc(N)cc3)o1)C(C)(C)CCC2(C)C [Compound 503]	-3
Cc1cc2c(cc1Cc1ccc(C(=O)NCCc3cccc(Oc4ccccc4)c3)o1)C(C)(C)CCC2(C)C [Compound 504]	46
Cc1cc2c(cc1Cc1ccc(C(=O)NCCCN3CCCCC3)o1)C(C)(C)CCC2(C)C [Compound 505]	7
COc1cc(CCNC(=O)c2ccc(Cc3cc4c(cc3C)C(C)(C)CCC4(C)C)o2)cc(OC)c1O [Compound 506]	3
Cc1cc2c(cc1Cc1ccc(C(=O)NCCc3ccccn3)o1)C(C)(C)CCC2(C)C [Compound 507]	-4
COc1ccc(OC)c(CCNC(=O)c2ccc(Cc3cc4c(cc3C)C(C)(C)CCC4(C)C)o2)c1 [Compound 508]	7
Cc1cc2c(cc1Cc1ccc(C(=O)NCCc3c[nH]c4ccc(Cl)cc34)o1)C(C)(C)CCC2(C)C [Compound 509]	16
Cc1cc2c(cc1Cc1ccc(C(=O)NCC(F)(F)F)o1)C(C)(C)CCC2(C)C [Compound 510]	23
Cc1cc2c(cc1Cc1ccc(C(=O)NCc3cccc(NC(=O)N(Cc4ccccc4)c4ccccc4)c3)o1)C(C)(C)CCC2(C)C [Compound 511]	47
Cc1cc2c(cc1Cc1ccc(C(=O)NCCc3ccccc3Oc3ccccc3)o1)C(C)(C)CCC2(C)C [Compound 512]	51
Cc1cc2c(cc1Cc1ccc(C(=O)NCCc3c[nH]cn3)o1)C(C)(C)CCC2(C)C [Compound 513]	9
Cc1cc2c(cc1Cc1ccc(C(=O)NCCNc3nccc(NCC4CCCO4)n3)o1)C(C)(C)CCC2(C)C (centres unmarked) [Compound 514]	2
Cc1cc2c(cc1Cc1ccc(C(=O)NCCN3CCCC3)o1)C(C)(C)CCC2(C)C [Compound 515]	11
Cc1cc2c(cc1Cc1ccc(C(=O)NCc3ccccc3C(F)(F)F)o1)C(C)(C)CCC2(C)C [Compound 516]	21
Cc1cc2c(cc1Cc1ccc(C(=O)Nc3nc(N(C)C)nc4nc[nH]c34)o1)C(C)(C)CCC2(C)C [Compound 517]	34
Cc1cc2c(cc1Cc1ccc(C(=O)NCc3cccc4c3OC3C=CC=CC43)o1)C(C)(C)CCC2(C)C (centres unmarked) [Compound 518]	56
Cc1cc2c(cc1Cc1ccc(C(=O)NCc3ccc(F)c(F)c3)o1)C(C)(C)CCC2(C)C [Compound 519]	0

Same assay, conditions: read-out: % Inhib. @ 10 uM mGnRH

Compound	inhibition at 10 µM [%]
Cc1cc2c(cc1Cc1ccc(C(=O)N[C@H]3CN4CCC3CC4)o1)C(C)(C)CCC2(C)C	12
